Source: patent US20100255598A1, “Medication Adherence Monitoring System” (priority 2007, published 2010)
Like-named read-outs stand apart in the source and are kept apart here.

Key:
CYP1A2 = molecular target: T1, CYP1A2 (Homo sapiens, UniProt P05177); settings: given orally to humans; cited from earlier work
T1 sequence (P05177 1-516): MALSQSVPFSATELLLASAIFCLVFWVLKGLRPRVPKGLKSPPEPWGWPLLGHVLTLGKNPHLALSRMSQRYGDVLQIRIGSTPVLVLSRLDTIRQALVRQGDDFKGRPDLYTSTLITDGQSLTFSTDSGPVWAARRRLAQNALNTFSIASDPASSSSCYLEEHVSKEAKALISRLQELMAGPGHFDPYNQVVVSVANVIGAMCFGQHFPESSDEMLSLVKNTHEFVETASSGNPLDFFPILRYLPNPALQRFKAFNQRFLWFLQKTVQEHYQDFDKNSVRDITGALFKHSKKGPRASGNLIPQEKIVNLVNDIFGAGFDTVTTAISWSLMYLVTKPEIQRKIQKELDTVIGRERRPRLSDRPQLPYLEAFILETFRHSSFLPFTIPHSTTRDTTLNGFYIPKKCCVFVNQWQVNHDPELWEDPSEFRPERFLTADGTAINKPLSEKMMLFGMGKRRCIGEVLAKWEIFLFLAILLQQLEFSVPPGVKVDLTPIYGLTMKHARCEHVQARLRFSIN

[1] = tested on: alcohol dehydrogenase (ADH); test: Breath ketone:alcohol ratio after 2° alcohol taggant; type: in vivo; settings: breath concentrations
Experimental: The presence (and persistence) of their corresponding ketones (EDIMs) in exhaled breath represents definitive proof of ingestion of a medication containing 2° alcohols (or a 2° alcohol-based ester, carbonate ester, ketal, etc.) as taggants. In general due to increased steric hindrance, 2° alcohols are not as good substrates for ADH relative to 1° alcohols. Likewise, the enzymatic pathways to degrade alcohol-derived ketones appear less efficient than those for alcohol-derived aldehydes.

alcohol dehydrogenase = settings: cited from earlier work
[2] = at 37° C.; cited from earlier work
CYP 2D6 = CYP 2D6 (Homo sapiens, UniProt P10635); settings: via CYP 2D6; cited from earlier work
CYP 2D6, sequence (P10635 whole entry): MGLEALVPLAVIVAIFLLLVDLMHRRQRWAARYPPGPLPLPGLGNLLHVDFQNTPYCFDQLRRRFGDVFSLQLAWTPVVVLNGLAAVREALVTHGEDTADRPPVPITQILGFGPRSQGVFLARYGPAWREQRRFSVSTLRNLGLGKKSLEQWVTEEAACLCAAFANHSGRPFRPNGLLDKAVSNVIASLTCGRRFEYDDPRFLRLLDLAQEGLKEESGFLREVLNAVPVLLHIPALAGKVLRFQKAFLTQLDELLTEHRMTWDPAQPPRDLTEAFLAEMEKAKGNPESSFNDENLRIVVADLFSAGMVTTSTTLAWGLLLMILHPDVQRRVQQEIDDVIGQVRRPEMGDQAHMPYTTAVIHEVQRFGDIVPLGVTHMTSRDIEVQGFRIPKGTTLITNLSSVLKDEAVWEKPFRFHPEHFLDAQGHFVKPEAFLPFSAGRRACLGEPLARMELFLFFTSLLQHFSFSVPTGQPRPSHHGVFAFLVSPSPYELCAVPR

Cn1c(=O)c2c(ncn2C)n(C)c1=O [caffeine]
fraction converted to theophylline (CYP1A2): Approximately 80%

CCC(C)=O [2-butanone]
ketone:alcohol ratio 2-butanone/2-butanol [1]: > 1

CO [Methanol, methanol]
half life in the blood (alcohol dehydrogenase; in the absence of alcohol): 1.8 to 3.0 h
half life in the blood (alcohol dehydrogenase; in the presence of alcohol): 8 to 24 h

CC(C)c1cccc(C(C)C)c1O [propofol]
vapor pressure [2]: ~0.2 mmHg

COc1ccc2c3c1O[C@H]1[C@@H](O)C=C[C@H]4[C@@H](C2)N(C)CC[C@@]341 [codeine]
fraction converted to morphine in vivo (CYP 2D6): about 10%
